pKd: −log10 of the molar value. Bridge positions count the residues as written; N and C are the ends. Square brackets hold non-standard residues; d marks the D form. Peptide text beside a SMILES is read from it. * marks the point of attachment. X1 = O=C(O)CN1CCN(CC(=O)O)CC(Cc2ccc(NC(=S)*)cc2)N(CC(=O)O)CC1; NMeF = CN[C@@H](Cc1ccccc1)C(=O)O
Tests used:
[1] = Dynamic PET/CT scan in healthy rhesus monkey, biodistribution and clearance; format: in vivo, male rhesus monkey; details: i.v.
Protocol: Healthy non-human primate: A 3 h dynamic PET/CT scan was performed in a healthy male rhesus monkey to determine whole body biodistribution and clearance properties in an additional species. Approximately 6 mCi of ^18F-labeled anti-granzyme-B peptide was intravenously injected in the animal. Attenuation correction was performed using low-dose CT scan. Regions of interests (ROI) were manually drawn over tissues of interest to determine mean standardized uptake value (SUVmean).

[2] = biological target: human Granzyme B (hGranzyme B) (Homo sapiens, UniProt P10144); test: Surface Plasmon Resonance (SPR) binding to human Granzyme B; details: Table 8, 25° C.
Protocol: All reagents and solvents were purchased from commercial sources and used “as is” unless otherwise noted. Reaction progress and synthetic intermediate analysis were assessed by LCMS (UV detection with ESI, APCI, or other mass detection) when applicable using a MeCN/water gradient with either TFA, formic acid, or NH4HCO3 modifier. Silica gel and reverse-phase flash column chromatography were conducted with commercially available pre-packed columns. Reverse-phase preparative HPLC purification was performed on preparative HPLC instruments with UV and MS detection using a MeCN/water gradient with either TFA, formic acid, or NH4OH modifier. Unless otherwise noted, all KD data presented in tables refers to the surface plasmon resonance assay that is described in the Biological Assay section.
The kinetics of test peptide binding to human Granzyme B (hGranzyme B) was determined by SPR. All experiments were performed at 25° C. using the Biacore 8k+ instrument (Cytiva, Marlborough, MA). The Biacore 8k+ Insight Evaluation Software Version 3.0 was used to fit the data with a 1:1 binding model to determine the association rate constant ka (M^−1s^−1, where “M” equals molar and “s” equals seconds) and the dissociation rate constant kd (s^−1). These rate constants were used to calculate the equilibrium dissociation constant, KD (M)=kd/ka. To measure the binding kinetics of peptides of interest, surfaces were prepared by a capture method to a Series S Streptavidin (SA) chip using a 1×HBS-EP+ running buffer (Cytiva). hGranzyme B was diluted to 10 μg/mL in 1×HBS-EP+ and flowed over spot 2 of each flow cell on the chip at a flow rate of 10 μl/min for 20 s to achieve a level of capture of ~1100 RU. An unmodified spot 1 of each flow cell was used as a matrix binding control or reference surface. Binding kinetics were measured using single cycle kinetics at 25° C. by injecting 5 concentrations with 3-fold serial dilutions of test peptides from […] to 1 μM. Compound dilutions were performed manually in a running buffer containing 1×HBS-EP+(Cytiva), and a final concentration of 2% DMSO. The interaction analyses over hGranzyme B, were performed using a 120 s association time and a 900 s dissociation time. All experiments were conducted at a flow rate of […] with a data collection rate of 10 Hz.
Peptide dilution series included 2 zero concentration points (no compound) which were averaged and subtracted from the peptide concentration injection as DMSO control responses. Binding data acquired from the reference surface (matrix binding control) were subtracted from the binding data for hGranzyme B surface on the chip to determine specific binding. Next, the association phase data were solvent corrected to account for any signal fluctuation throughout the experiment due to subtle DMSO concentration differences. Corrected response data were analyzed using the Biacore 8k+ Evaluation Software Version 3.0 according to the manufacturer. SPR data for representative compounds of the disclosure are found in Table 8.

Chain of human Granzyme B (hGranzyme B) (P10144 21-247): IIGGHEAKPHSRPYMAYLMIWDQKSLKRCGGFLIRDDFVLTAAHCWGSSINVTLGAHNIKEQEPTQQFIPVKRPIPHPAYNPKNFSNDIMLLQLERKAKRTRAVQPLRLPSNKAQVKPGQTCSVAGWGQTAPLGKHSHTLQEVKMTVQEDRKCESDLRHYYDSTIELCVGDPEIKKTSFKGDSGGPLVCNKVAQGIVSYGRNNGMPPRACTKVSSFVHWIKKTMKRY

Row | SMILES | pKd [2] | also measured
1 | CC(C)[C@@H]1NC(=O)[C@H](CC(=O)O)NC(=O)[C@H](Cc2ccc(O)cc2)NC(=O)[C@H](Cc2ccc(O)cc2)NC(=O)[C@H](Cc2ccccc2)N(C)C(=O)[C@H](Cc2ccccc2)N(C)C(=O)[C@H](Cc2ccccc2)NC(=O)CSC[C@@H](C(=O)NCC(=O)NCC(=O)N[C@@H](CCCCNC(=S)Nc2ccc(CC3CN(CC(=O)O)CCN(CC(=O)O)CCN3CC(=O)O)cc2)C(N)=O)NC(=O)[C@H](Cc2c[nH]cn2)NC(=O)[C@H](Cc2ccccc2)N(C)C(=O)[C@H](Cc2ccc(O)cc2)NC(=O)[C@H](C(C)C)NC(=O)[C@H](CC(=O)O)NC(=O)[C@H](C(C)C)NC(=O)[C@H](CC(=O)O)NC1=O (some centres unmarked) [Compound 6a, *F.NMeF.NMeF.Y.Y.D.V.D.V.D.V.Y.NMeF.H.*C.G.G.K(^18F-AlF-NOTA)-NH2] ({CH2CO}-F[NMeF][NMeF]YYDVDVDVY[NMeF]HCGGK(X1)-NH2; thioether N-15) | – | excretion route ([1]; PET images): primarily excreted through renal route; blood pool clearance ([1]; approximately 6 mCi, PET): rapid blood pool clearance; liver uptake duration ([1]; quantitative analyses of PET images): prolonged liver uptake; uptake in liver and kidneys ([1]; within first 20 minutes of injection): high uptake in liver and kidneys within first 20 minutes of injection
2 | CC(C)[C@@H]1NC(=O)[C@H](CC(=O)O)NC(=O)[C@H](C)NC(=O)[C@H](Cc2ccc(O)cc2)NC(=O)[C@H](Cc2ccccc2)N(C)C(=O)[C@H](Cc2ccccc2)N(C)C(=O)[C@H](Cc2ccccc2)NC(=O)CSC[C@@H](C(=O)NCC(=O)N[C@@H](CCCCN)C(=O)N[C@@H](CCCCN)C(N)=O)NC(=O)[C@H](Cc2c[nH]cn2)NC(=O)[C@H](Cc2ccccc2)N(C)C(=O)[C@H](Cc2ccc(O)cc2)NC(=O)[C@H](C(C)C)NC(=O)[C@H](CC(=O)O)NC(=O)[C@H](C(C)C)NC(=O)[C@H](CC(=O)O)NC1=O [Compound 11a, *F.NMeF.NMeF.Y.A.D.V.D.V.D.V.Y.NMeF.H.*C.G.K.K-NH2] ({CH2CO}-F[NMeF][NMeF]YADVDVDVY[NMeF]HCGKK-NH2; thioether N-15) | 8.68 | –
3 | CC(C)[C@@H]1NC(=O)[C@H](CC(=O)O)NC(=O)[C@H](Cc2ccc(O)cc2)NC(=O)[C@H](Cc2ccc(O)cc2)NC(=O)[C@H](Cc2ccccc2)N(C)C(=O)[C@H](Cc2ccccc2)N(C)C(=O)[C@H](Cc2ccccc2)NC(=O)CSC[C@@H](C(=O)NCC(=O)N[C@@H](CCCCN)C(N)=O)NC(=O)[C@H](Cc2c[nH]cn2)NC(=O)[C@H](Cc2ccccc2)N(C)C(=O)[C@H](Cc2ccc(O)cc2)NC(=O)[C@H](C(C)C)NC(=O)[C@H](CC(=O)O)NC(=O)[C@H](C(C)C)NC(=O)[C@H](CC(=O)O)NC1=O [Compound 12a, *F.NMeF.NMeF.Y.Y.D.V.D.V.D.V.Y.NMeF.H.*C.G.K-NH2] ({CH2CO}-F[NMeF][NMeF]YYDVDVDVY[NMeF]HCGK-NH2; thioether N-15) | 8.59 | –
4 | CC(C)[C@@H]1NC(=O)[C@H](CC(=O)O)NC(=O)[C@H](C(C)C)NC(=O)[C@H](CC(=O)O)NC(=O)[C@H](Cc2ccc(O)cc2)NC(=O)[C@H](Cc2ccc(O)cc2)NC(=O)[C@H](Cc2ccccc2)N(C)C(=O)[C@H](Cc2ccccc2)N(C)C(=O)[C@H](Cc2ccccc2)NC(=O)CSC[C@@H](C(=O)NCC(N)=O)NC(=O)[C@H](Cc2c[nH]cn2)NC(=O)[C@H](Cc2ccccc2)N(C)C(=O)[C@H](Cc2ccc(O)cc2)NC(=O)[C@H](C)NC(=O)[C@H](CC(=O)O)NC1=O [Compound 17a, *F.NMeF.NMeF.Y.Y.D.V.D.V.D.A.Y.NMeF.H.*C.G-NH2] ({CH2CO}-F[NMeF][NMeF]YYDVDVDAY[NMeF]HCG-NH2; thioether N-15) | 7.97 | –

Second part, led by results:

Row | pKd [2] | SMILES | also measured
5 | 6.12 | CC(C)[C@@H]1NC(=O)[C@H](CC(=O)O)NC(=O)[C@H](Cc2ccc(O)cc2)NC(=O)[C@H](C)NC(=O)[C@H](Cc2ccccc2)N(C)C(=O)[C@H](Cc2ccccc2)N(C)C(=O)[C@H](Cc2ccccc2)NC(=O)CSC[C@@H](C(=O)NCC(N)=O)NC(=O)[C@H](Cc2c[nH]cn2)NC(=O)[C@H](Cc2ccccc2)N(C)C(=O)[C@H](Cc2ccc(O)cc2)NC(=O)[C@H](C(C)C)NC(=O)[C@H](CC(=O)O)NC(=O)[C@H](C(C)C)NC(=O)[C@H](CC(=O)O)NC1=O [Compound 23a, *F.NMeF.NMeF.A.Y.D.V.D.V.D.V.Y.NMeF.H.*C.G-NH2] ({CH2CO}-F[NMeF][NMeF]AYDVDVDVY[NMeF]HCG-NH2; thioether N-15) | –
6 | 9.00 | CC(C)[C@@H]1NC(=O)[C@H](CC(=O)O)NC(=O)[C@H](C)NC(=O)[C@H](Cc2ccc(O)cc2)NC(=O)[C@H](Cc2ccccc2)N(C)C(=O)[C@H](Cc2ccccc2)N(C)C(=O)[C@H](Cc2ccccc2)NC(=O)CSC[C@@H](C(=O)NCC(=O)N[C@@H](CCCCN)C(N)=O)NC(=O)[C@H](Cc2c[nH]cn2)NC(=O)[C@H](Cc2ccccc2)N(C)C(=O)[C@H](Cc2ccc(O)cc2)NC(=O)[C@H](C(C)C)NC(=O)[C@H](CC(=O)O)NC(=O)[C@H](C(C)C)NC(=O)[C@H](CC(=O)O)NC1=O [Compound 10a, *F.NMeF.NMeF.Y.A.D.V.D.V.D.V.Y.NMeF.H.*C.G.K-NH2] ({CH2CO}-F[NMeF][NMeF]YADVDVDVY[NMeF]HCGK-NH2; thioether N-15) | –
7 | 9.10 | CC(C)[C@@H]1NC(=O)[C@H](CC(=O)O)NC(=O)[C@H](C)NC(=O)[C@H](Cc2ccc(O)cc2)NC(=O)[C@H](Cc2ccccc2)N(C)C(=O)[C@H](Cc2ccccc2)N(C)C(=O)[C@H](Cc2ccccc2)NC(=O)CSC[C@@H](C(=O)NCC(N)=O)NC(=O)[C@H](Cc2c[nH]cn2)NC(=O)[C@H](Cc2ccccc2)N(C)C(=O)[C@H](Cc2ccc(O)cc2)NC(=O)[C@H](C(C)C)NC(=O)[C@H](CC(=O)O)NC(=O)[C@H](C(C)C)NC(=O)[C@H](CC(=O)O)NC1=O [Compound 15a, *F.NMeF.NMeF.Y.A.D.V.D.V.D.V.Y.NMeF.H.*C.G-NH2] ({CH2CO}-F[NMeF][NMeF]YADVDVDVY[NMeF]HCG-NH2; thioether N-15) | –
8 | 6.26 | CC(C)[C@@H]1NC(=O)[C@H](C)NC(=O)[C@H](C(C)C)NC(=O)[C@H](CC(=O)O)NC(=O)[C@H](Cc2ccc(O)cc2)NC(=O)[C@H](Cc2ccc(O)cc2)NC(=O)[C@H](Cc2ccccc2)N(C)C(=O)[C@H](Cc2ccccc2)N(C)C(=O)[C@H](Cc2ccccc2)NC(=O)CSC[C@@H](C(=O)NCC(N)=O)NC(=O)[C@H](Cc2c[nH]cn2)NC(=O)[C@H](Cc2ccccc2)N(C)C(=O)[C@H](Cc2ccc(O)cc2)NC(=O)[C@H](C(C)C)NC(=O)[C@H](CC(=O)O)NC1=O [Compound 22a, *F.NMeF.NMeF.Y.Y.D.V.A.V.D.V.Y.NMeF.H.*C.G-NH2] ({CH2CO}-F[NMeF][NMeF]YYDVAVDVY[NMeF]HCG-NH2; thioether N-15) | –

Source: patent US20260297134A1, “CYCLIC PEPTIDES AS PET IMAGING AGENTS OF GRANZYME B” (Merck Sharp & Dohme LLC, priority 2023, published 2026)
